# From patent US20130225603A1, “MDM2 INHIBITORS FOR TREATMENT OF OCULAR CONDITIONS” (SERRATA LLC, priority 2010, published 2013)
# “Also recorded” adds a separate entry of the source.
# Tests used:
# [1] = tested on: HRMECs; assay: Cell viability/proliferation, HRMECs in serum; format: cell-based, human; conditions: racemic Nutlin-3
# Description: Cells were seeded at a concentration of 2×10^5 for HUVECs and 2×10^4 for HUVSMCs in serum free media on 12 well plates after detachment. The cells were allowed to adhere overnight in growth media, and then incubated with X-VIVO media (Cambrex) with or without cytokines (10 ng/ml FGF-2 and 2 μg/ml heparin or 10 ng/ml VEGF-A). For HRMEC experiments, cells were seeded at a concentration of 1×10^5 and allowed to settle overnight in 6-cm plates coated with attachment factor (Cell Signaling, Danvers, Mass.). The next day, fresh 10% FBS and EBM medium was added. […] After incubation, HUVEC were detached with collagenase/EDTA and HUVSMC and HRMEC were detached with trypsin/EDTA. The cells were manually counted with a Hemacytometer (Hausser Scientific, Horsham, Pa.) using Trypan blue exclusion.
# [2] = tested on: p53; assay: p53 expression in HRMECs; format: cell-based, human; conditions: racemic Nutlin-3, 10% FBS
# Description: HUVECs and HUVSMCs were incubated at 2×10^6 in X-VIVO media and HRMECs in EBM with 10% FBS under various conditions as reported in the results. Western blot extracts were prepared by lysing cells attached cells in cold RIPA buffer in the presence of protease inhibitors for HUVEC and HUVSMC and passive lysis buffer (Promega, Madison, Wis.) for HRMEC. After sonication and centrifugation to remove cell debris, the protein yield was quantified using the BCA protein assay kit (Pierce Biotechnology Inc., Rockford, Ill.). Normalized cell lysates were then mixed with sample buffer containing 2-mercaptoethanol and SDS and heated for 5 minutes at 95° C. Equal amounts of protein were run on SDS-polyacrylamide gels before being transferred to PVDF membranes. Binding of the primary antibody against p53, p21, and beta actin was detected with enhanced chemiluminescence reagent (Amersham) using HRP-conjugated secondary antibody (1:10,000, Amersham).
# [3] = tested on: HRMECs; assay: Apoptosis of HRMECs in serum (TUNEL); format: cell-based, human; conditions: HRMECs in serum (10% FBS)
# Description: HUVECs were plated on collagen coated plastic bottom culture dishes (MatTek Corp., Ashland, Mass.) overnight. […] HRMEC were treated with 15 μM of racemic Nutlin for 24 hours in 10% FBS. The TUNEL assay was performed following instructions provided with the kit (Roche Applied Science, Indianapolis, Ind.). Representative images of the HRMEC experiment were provided with a 4× objective using an Olympus AX70 fluorescence microscope following the addition of a nuclear counter stain. For HUVEC experiments, 5 representative fields with a 20× objective using a Zeiss confocal microscope were captured. 2 masked observers performed cell counts. For wholemount retina staining, TUNEL solution was incubated for 48 hours diluted in PBS plus 0.3% Triton-X 100 after lectin staining.
# [4] = tested on: retinal vasculature of mouse pups; assay: In vivo retinal vascular development assay (subcutaneous and periocular injection)
# Description: A technique described by Strombland et al. was modified to study the effects of Nutlin-3 on in vivo vascular development (see Stromblad S, Fotedar A, Brickner H, et al., J. Biol. Chem. 277:13371-13374 (2002), which is incorporated herein by reference. Briefly, racemic Nutlin was administered by subcutaneous injection in the nape of the neck or in the periocular area of each eye to wild type 129 S1-VIMJ (Jackson Laboratories, Bar Harbor, Me.) mouse pups within 12 hours of birth. The mice received a total of 4 (periocular experiments) or 5 (subcutaneous neck experiments) injections of either racemic Nutlin or 100% DMSO. The first injection of Nutlin was administered at a dose of 40 mg/kg while the rest were given at a dose of 80 mg/kg for experiments involving injections in the nape of the neck. A dose of 80 mg/kg was administered for all injections in the periocular series of experiments. The pups were euthanized on postnatal day 3 and the eyes were enucleated after the fused eyelids incised.
# The eyes were then fixed in 4% paraformaldeheyde overnight and washed three times with PBS. After removing the cornea and lens, the hyaloidal (primitive) vasculature was removed and four radial incisions were made in the eyecup to flatten the retina/choroid/sclera complex. The choroid and sclera were removed from the retina and cut at the optic nerve. After the retinal wholemount was blocked with 5% bovine serum albumin, 5% normal donkey serum, and 0.5% TritonX-100 for 3 hours or overnight, the wholemount was incubated with a 1:200 dilution of GS-IB4 lectin overnight and mounted with Vectashield (Vector Laboratories). For double staining wholemount experiments, retinas were incubated with primary antibody overnight at 4° C., underwent 6 one hour washes with PBS-T, followed by incubation with secondary antibody overnight at 4° C., followed by 6 one hour washes with PBS-T prior to being cover-slipped with Vectashield. Using a fluorescent biomicroscope (Carl Zeiss Discovery V12, Thornwood, N.Y.) hyaloidal vessels, vessels connected to the optic nerve, on the surface of the retina, were dissected in a masked manner. A confocal laser (Carl Zeiss LSM 510 meta) was used to obtain images of the retinal vasculature.
# We captured images with the same laser power, objective, gain, pinhole, and amplifier offset. The resultant images were masked to the analyst assessing the images. All analyzed images were captured with a 5× objective and then exported to Adobe Photoshop 7.0 (San Jose, Calif.) as high-resolution .tiff images. Using the Magic Wand tool and histogram function, the analyst recorded the number of pixels that best represented the retinal vasculature and omitted the residual hyaloidal (fetal) vasculature that was unable to be removed during dissection. Blood vessels assessed to be residual hyaloid were found at a different focal plane than retinal blood vessels and were usually connected to the optic nerve.
# [5] = tested on: retinal vessels of adult mice; assay: In vivo adult retinal vessel assay (intravitreal injection); set-up: species or system mouse; conditions: five days after injection
# Description: Adult, three month old, 129 and C57/BL6/129S mice were anesthetized with Avertin and also given a drop of topical proparacaine 1% for local anesthesia. Using a stereo microscope, a glass capillary pipette was used to inject 1 μL of either vehicle or racemic Nutlin-3 into the vitreous of cavity of both eyes of each animal. Mice were then euthanized five days after injection. All procedures involving mice were approved and monitored by the Weill Medical College of Cornell University and Hospital for Special Surgery Animal Care and Use Committees. The eyes were then fixed in 4% paraformaldeheyde overnight and washed three times with PBS. After removing the cornea and lens, the hyaloidal (primitive) vasculature was removed and four radial incisions were made in the eyecup to flatten the retina/choroid/sclera complex. The choroid and sclera were removed from the retina and cut at the optic nerve. After the retinal wholemount was blocked with 5% bovine serum albumin, 5% normal donkey serum, and 0.5% TritonX-100 for 3 hours or overnight, the wholemount was incubated with a 1:200 dilution of GS-IB4 lectin overnight and mounted with Vectashield (Vector Laboratories). […]
# [6] = tested on: HUVECs; assay: Apoptosis of endothelial cells (HUVECs) in serum enriched media; format: cell-based, human
compound,measurement,setting,value
"COc1ccc(C2=NC(c3ccc(Cl)cc3)C(c3ccc(Cl)cc3)N2C(=O)N2CCNC(=O)C2)c(OC(C)C)c1 (racemic) [Nutlin-3, (±)-4-[4,5-bis(4-chlorophenyl)-2-(2-isopropoxy-4-methoxy-phenyl)-4,5-dihydro-imidazole-1-carbonyl]-piperazin-2-one]",HRMEC cell viability,[1],sufficient to inhibit cell viability
same,p53 expression in HRMECs,[2],upregulation of p53
same,apoptosis in HRMECs,[3],induces apoptosis
same,retinal vasculature compared to sham injected mice (images),"[4]; neonatal mice, periocular injection, FIG. 6E",less retinal vasculature
same,fewer blood vessels compared to the sham-injected mice,"[4]; neonatal mice, periorbital (periocular) injection, 80 mg/kg, postnatal day 3, p<0.01",43.8%
same,calibre of retinal vessels affected,"[4]; neonatal mice, retinal wholemounts",loss of smaller caliber vessels; also recorded: preferentially targeted capillaries and smaller blood vessels
same,reduction in the amount of retinal vessels compared to sham injected mice,"[4]; neonatal mice, subcutaneous injection in the nape of the neck, 40 then 80 mg/kg, postnatal day 3, p<0.05",27.4%
same,retinal vasculature compared to sham injected mice (images),"[4]; neonatal mice, subcutaneous injection in the nape of the neck, FIG. 6B",abrogated
same,TUNEL positive cells in the retinal vasculature,"[4]; neonatal mouse retinal wholemount, GS-IB4 lectin co-staining, rare event",TUNEL positive cells that co-localized to the retinal endothelium
same,thickness of the neuronal cell layers of the neurosensory retina (hematoxylin and eosin),[5],did not observe any gross changes in the thickness of the neuronal cell layers
same,retinal vasculature of adult mice compared to control,[5]; p>0.05,no reduction of the retinal vasculature; also recorded: no difference
same,apoptosis of endothelial cells,[6],do not undergo apoptosis
